The subject of data set [1] is LV homogenate. As to the kind of experiment: Cardiac tissue respiration, Clark-type oxygen electrode, LV homogenate. Also on record: species or system rat. The procedure: Mitochondrial respiration was measured before and after CO gas exposure in a Clark-type oxygen electrode respirometry system. The effects of infusion of both reduced hemoglobin and myoglobin were evaluated. Fresh liver was collected from a normal rat, and mitochondria were isolated through differential centrifugation. For left ventricle (LV) tissue, fresh LV was collected from a normal rat and then homogenized. The resulting mitochondria and LV tissue was put into the Clark-type electrode air tight reaction chamber, then substrates (succinate (mitochondria) or malate and pyruvate (LV) and ADP) were added. Mitochondria respired to 0% oxygen and then the system was reoxygenated with a pipetted injection of room air. Mitochondria respired back down to the desired 02 concentration. […]
CO poisoning has long term effects on patients, and one theory is the poisoning of mitochondria leads to generation of increased reactive oxygen species (ROS) through the inhibition of complex IV of the electron transport chain. A model to measure the amount of inhibition produced by CO exposure and quantify it through respiratory rates was developed. In a Clark electrode, the oxygen respiration of isolated mitochondria from rat livers and left ventricle (LV) homogenate was measured, with the addition of the substrates succinate and ADP to measure maximal respiration. […]

Data set [2] deals with isolated liver mitochondria. Description: Mitochondrial respiration, Clark-type oxygen electrode, isolated liver mitochondria. More on the design: species or system rat. To be noted: for reduction of respiration: tissue not specified. Here is the method: Mitochondrial respiration was measured before and after CO gas exposure in a Clark-type oxygen electrode respirometry system. The effects of infusion of both reduced hemoglobin and myoglobin were evaluated. Fresh liver was collected from a normal rat, and mitochondria were isolated through differential centrifugation. For left ventricle (LV) tissue, fresh LV was collected from a normal rat and then homogenized. The resulting mitochondria and LV tissue was put into the Clark-type electrode air tight reaction chamber, then substrates (succinate (mitochondria) or malate and pyruvate (LV) and ADP) were added. Mitochondria respired to 0% oxygen and then the system was reoxygenated with a pipetted injection of room air. Mitochondria respired back down to the desired 02 concentration. At this point, CO was added, either in gas form or saturated PBS solution. The system was then reoxygenated, and respiration occurred down to 0%. These rates of respiration were compared with pre-CO exposure. The reason for the first reoxygenation step was to more equally compare rates of mitochondria that have experienced some hypoxia, which can damage their function. After this was completed, CO scavenging agents were added, the system was reoxygenated and this final rate of respiration was compared both to pre-CO and post-CO respiration.
CO was then infused, the system was reoxygenated, and rates of respiration were compared. After respiration to 0% 02, myoglobin was infused, the system was reoxygenated and the rates were compared.
CO poisoning has long term effects on patients, and one theory is the poisoning of mitochondria leads to generation of increased reactive oxygen species (ROS) through the inhibition of complex IV of the electron transport chain. A model to measure the amount of inhibition produced by CO exposure and quantify it through respiratory rates was developed. In a Clark electrode, the oxygen respiration of isolated mitochondria from rat livers and left ventricle (LV) homogenate was measured, with the addition of the substrates succinate and ADP to measure maximal respiration. […] This effect was stronger in more hypoxic states, consistent with the known competition between CO and O2 for binding at the heme in cytochrome c oxidase (62% reduction in hypoxia versus ˜50% in normoxia).

The conditions of data set [3]: cited from earlier work; for Kd: CO; for kon: rate of CO binding; for koff: rate of CO dissociation.
The test system of data set [4] is mice exposed to 30,000 ppm (3%) CO gas. Description: Severe CO poisoning mouse model: survival and hemodynamics. It counts as in vivo. To be noted: for effect on hemodynamic collapse (heart rate, mean arterial blood pressure) induced by CO: infusion after 4.5 minutes of 3% CO; for mortality: 3% CO 4.5 minutes. The procedure: To establish a model for cardiovascular and mortality end points, tracheally intubated, ventilated, anesthetized mice were exposed to 30,000 ppm (3%) CO gas, with 21% oxygen and 1.5% isoflurane for 4.5 minutes. Mice were surgically instrumented with placement of jugular venous (for infusion of drug) and carotid arterial (for blood pressure and heart rate monitoring) catheters. In this model, there was 88.2% (15/17) mortality in a group infused with 300 μL of PBS post exposure, while all mice that received an infusion of 11 mM myoglobin survived (0% mortality; n=5). Survival of mice infused with myoglobin was due to the reversal in hemodynamic collapse and bradycardia induced by CO (FIG. 5).
Tracheally intubated, ventilated, anesthetized mice were exposed to 30,000 ppm (3%) CO gas, with 21% oxygen and 1.5% isoflurane for 4.5 minutes. Mice were surgically instrumented with placement of jugular venous (for infusion of drug) and carotid arterial (for blood pressure and heart rate monitoring) catheters. In this model, all mice that received PEG-Hb (n=3) survived. The concentration infused was 10 mM at approximately 200 to 250 microliters volume.

For data set [5], the system named is HbCO. As to the kind of experiment: Severe CO poisoning mouse model: HbCO level by spectrometry. The class given is in vivo, mice. The procedure: To establish a model for cardiovascular and mortality end points, tracheally intubated, ventilated, anesthetized mice were exposed to 30,000 ppm (3%) CO gas, with 21% oxygen and 1.5% isoflurane for 4.5 minutes. Mice were surgically instrumented with placement of jugular venous (for infusion of drug) and carotid arterial (for blood pressure and heart rate monitoring) catheters.
(§1) Through the jugular venous catheter, the HbCO level was sampled using spectrometry. […] Mouse half-life for CO is much faster than for humans.
Tracheally intubated, ventilated, anesthetized mice were exposed to 30,000 ppm (3%) CO gas, with 21% oxygen and 1.5% isoflurane for 4.5 minutes. Mice were surgically instrumented with placement of jugular venous (for infusion of drug) and carotid arterial (for blood pressure and heart rate monitoring) catheters. […] The concentration infused was 10 mM at approximately 200 to 250 microliters volume.
as §1

The nature of data set [6]: Safety of oxygen carriers in healthy mice. It counts as in vivo. To be noted: for tolerability of infusion: retro-orbital injection, 8-12 mM, observed for 48 hours; for blood chemistries: serum at 48 hours; for hematology profile: whole blood at 48 hours. The procedure: Healthy mice were anesthetized with 3% isoflurane gas and myoglobin and hemoglobin were injected into the retro-orbital space. […] At 48 hours, the animals were sacrificed, their serum was analyzed for blood chemistries and whole blood was tested for complete blood count.

The subject of data set [7] is HbCO. As to the kind of experiment: In vitro model of CO poisoning: CO scavenging from HbCO / carboxylated RBCs. It counts as biochemical. The procedure:
FIGS. 4A-4C are graphs showing the in vitro binding of CO from hemoglobin by wild type equine myoglobin. PBS or myoglobin (100 μL) was infused into a solution containing carboxylated red blood cells in the presence of 5 mM sodium dithionite at 37° C. Samples were taken from the reaction mixture at several time points and the RBCs were separated from the supernatant (containing the Mb) by centrifugation. The amount of HbCO/MbCO in each fraction was determined by UV-vis spectroscopy. (FIG. 4A) Carboxylated RBCs mixed with PBS. (FIG. 4B and FIG. 4C) Two sample experiments where different amounts of carboxylated RBCs were mixed with Mb. […]
Oxygenated or deoxygenated myoglobin (Mb) was prepared following the same procedure as that described for the experiments with pure Hb. In some experiments, after initiating the reaction, red cells were separated from Mb to measure absorbance spectra. […] Hb absorbance in the lysed RBC solution was measured with the Cary 50 spectrophotometer in a 1 cm path length cuvette. This cycle was repeated six times, each 1.5-5 minutes, giving six absorbance measurements of the Hb. […] The time when absorbance of hemoglobin was measured in the reaction was assumed to be the time elapsed after injection of Mb to 15 or 30 seconds after the start of centrifugation (for 30 or 60 second centrifugation durations, respectively). […]

These results are taken from US12251427B2, “Reduced oxygen carriers and their use for the treatment of carboxyhemoglobinemia” (priority 2016, dated 2025).

For the molecule `[C-]#[O+]` [CO, carbon monoxide], the “decrease of respiration from pre-CO (maximal) respiration” value in data set [1] (CO gas versus air) turned out to be 75.6%; in data set [2] (CO gas versus room air), 60.5%. For the same molecule, the reduction of respiration is listed as 62% in data set [2] (hypoxia) and roughly 50% in data set [2] (normoxia).

Broadly, the Kd is a measure of binding affinity in units of concentration. As usually defined, the kon is a measure of how fast the partners come together. Usually koff stands for a measure of how fast the partners let go of each other. For “Human Hb (alpha subunit, R-state): human hemoglobin alpha subunit, R-state”, in data set [3], the Kd was 2 nM, the kon is 6e+06 M⁻¹ s⁻¹ and the koff was 0.012 s⁻¹.

Turning to “Human Hb (alpha subunit, T-state): human hemoglobin alpha subunit, T-state”, in data set [3], the Kd was 1750 nM, the kon is 120000 M⁻¹ s⁻¹ and the off-rate constant (koff) is 0.21 s⁻¹.

Turning to “Human Hb (beta subunit, R-state): human hemoglobin beta subunit, R-state”, in data set [3], the equilibrium dissociation constant (Kd) is 0.946 nM, the kon is 7.4e+06 M⁻¹ s⁻¹ and the koff was 0.007 s⁻¹.

Take “Human Hb (beta subunit, T-state): human hemoglobin beta subunit, T-state”: in data set [3], the Kd was 3800 nM, the kon is 50000 M⁻¹ s⁻¹ and the koff was 0.19 s⁻¹.

Turning to “PEG-Hb: surface conjugation of polyethylene glycol to human hemoglobin; artificial oxygen carrier”, the survival result in data set [4] (10 mM, approximately 200 to 250 microliters, n=3) is “survived”. The “effect on hemodynamic collapse (heart rate, mean arterial blood pressure) induced by CO” value (from here on “effect on hemodynamic collapse”) in data set [4] is “restored”. Besides, the HbCO level was 66% in data set [5] (five minutes after infusion, Example 9) and 62% in data set [5] (ten minutes after treatment, Example 9).

For the molecule “hemoglobin: hemoglobin, natural oxygen carrier, infused in reduced (deoxy) form as CO scavenger”, the survival entry in data set [4] (infused with <4 mM) is “died”. Besides, the survival result in data set [4] (infused with ≥4 mM) is recorded as “all survived”. Further, the “effect on hemodynamic collapse” value in data set [4] was “reversed”. For the same molecule, the “increase of respiration from the CO inhibited rate” value in data set [2] (0.5 equimolar, after CO gas) was 95%. Further, in data set [6], the tolerability of infusion result is on record as “well tolerated”; the blood chemistries entry was “normal kidney and liver function”; the hematology profile entry was “only a slight decline in platelets”.

B1: Equine Myoglobin: wild type equine myoglobin, natural oxygen carrier, used in reduced (deoxy) form as CO scavenger (protein, UniProt P68082 2-154, looked up)
Myoglobin: GLSDGEWQQVLNVWGKVEADIAGHGQEVLIRLFTGHPETLEKFDKFKHLKTEAEMKASEDLKKHGTVVLTALGGILKKKGHHEAELKPLAQSHATKHKIPIKYLEFISDAIIHVLHSKHPGDFGADAQGAMTKALELFRNDIAAKYKELGFQG
modifications: deoxy form
notes: wild type equine myoglobin, natural oxygen carrier, used in reduced (deoxy) form as CO scavenger
In general, mortality refers to the percentage killed. Consider B1, for which, in data set [4] (concentration greater than 11 mM, n=10), the survival stood at 100%. In addition, the survival in data set [4] (concentrations less than 11 mM, n=4) is listed as 0%. Besides, the “concentration needed to reverse the hemodynamic collapse induced by severe CO poisoning” value in data set [4] (infused concentration) is on record as “greater than 11 mM”. Further, in data set [4], the “effect on hemodynamic collapse” value is given as “reversal”. The “effect on hemodynamic collapse” value in data set [4] (listed as reduced myoglobin) is “restoration”. In addition, in data set [4] (infusion of 11 mM, n=5), the mortality amounted to 0%. In data set [4] (infusion of 300 μL of 11.5 mM reduced form), this molecule showed a mortality of 0%. In data set [3] (CO versus O2), the “affinity for CO relative to oxygen” value is recorded as 60 fold. Moreover, in data set [3], the dissociation constant (Kd) is 68.8 nM, the kon is 510000 M⁻¹ s⁻¹ and the koff is 0.035 s⁻¹. The “increase of respiration from the CO inhibited rate” value in data set [1] (0.5 equimolar, after CO gas) is reported as 199%. In addition, the “HbCO reduced, CO bound by myoglobin” value in data set [7] (100% HbCO, anaerobic, added in a 1:1 ratio) is “more than half”. Besides, in data set [7] (added in deficit: 110.8 μM HbCO versus 85.3 μM deoxy-myoglobin), the HbCO concentration reduced result is reported as “one third”. The molecule also showed a HbCO level in data set [5] (five minutes after infusion, Example 4) of 65.04%. In data set [5] (ten minutes after treatment, Example 4), this molecule had a HbCO level of 52.8%. Also, in data set [6], the tolerability of infusion result was “well tolerated”; the blood chemistries result is “normal kidney and liver function”; the hematology profile entry is on record as “only a slight decline in platelets”.
